Experimental data published in patent US20240050413A1, “COMPOSITIONS AND METHODS FOR TREATING MULTIPLE SCLEROSIS AND ALLEVIATING FATIGUE” (University of Miami, priority 2020, published 2024).
Several values for one entry are separate records, joined by “and”; a condition that tells them apart may be missing. Equal entries are not always repeated.

Assays:
Format in all cases: in vivo, human
[1] = test system: MS subjects with severe fatigue; assay: Sequential dose escalation study of fatigue in multiple sclerosis (VAFS, FSS, MFIS, Epworth sleep scale, satiety scale, adverse events); conditions: for improvement in the MFIS: on-drug vs off-drug
Method: Three groups of subjects participated in a sequential dose escalation protocol. All subjects received a fixed dose of carbidopa, 50 mg po bid. […] Tablets of the study drugs were produced by the research pharmacy at the University of Miami. Carbidopa was prepared in 50 mg, and 1-histidine at 250 mg strength. Drug dispensation was carried out by the research pharmacist according to the dosage designated for each group.
Benefits and adverse events were documented and reported to the Data Safety Monitoring Body (DSMB). After approval from the DSMB, group 2 was started. Group 2 received 500 mg po bid of L-histidine. Once again after approval from the DSMB, following the successful completion of group 2, escalation to group 3, namely 1 gm po bid of L-histidine was completed. All subjects agreed to participate with 2 lumbar punctures each a week apart, for collection of cerebrospinal fluid (CSF) for the PK/PD part of the study. Each group required the participation of 3 MS subjects and 1 normal individual. For whatever reason if a subject could not complete the study, the design permitted substitution so every group will have three MS subjects and a normal subject that completed the trial.
After informed consent, subjects were screened at the first visit to meet inclusion/exclusion criteria and baseline laboratory studies were obtained including complete blood counts, comprehensive metabolic panel, thyroid panel, and inventory of health measures, including a complete general examination as well as EKG. Subjects completed questionnaires that included the following: Visual Analogue Fatigue Scale (VAFS), fatigue severity scale (FSS), modified fatigue impact scale (MFIS), Epworth sleep scale, Satiety scale, and Center for Epidemiologic Studies Depression Scale. Within 30 days of their screening visit, subjects returned for their baseline visit. The questionnaires were completed again, and subjects underwent the baseline lumbar puncture for collection of baseline cerebrospinal fluid (CSF).
The study medication for the appropriate group was dispensed and all subjects took the first dose of the study drug during this visit.
(§1) Medications were dispensed for 7 days. On day 8, subjects arrived at the center and received the final dose of the study drug and timed from that dosing for the PK/PD studies.
(§2) Blood samples were collected at drug administration, and every 30 minutes for 4 hours. At 90 minutes the second and final lumbar puncture was completed, and CSF obtained for measurement of L-histidine and histamine. All subjects completed the same questions to determine the effects of the treatment on fatigue, wakefulness and satiety.
All subjects were recruited from the MS Center at the University of Miami. Subjects who complained of severe and persistent fatigue of duration longer than 6 months were eligible to be screened for the study. During screening inclusion and exclusion criteria were carefully reviewed. To be eligible, a subject needed to have a definite diagnosis of MS by the McDonald International Criteria and severe fatigue with a mean Fatigue Severity Score (FSS) of 5.0 or greater (maximum mean FSS=7.0). Patients with confounding factors such as anemia, untreated hypothyroidism, depression, concomitant medication that caused fatigue were carefully examined and excluded. Use of stimulants and concomitant use of medications for treatment of fatigue such as modafinil was excluded. Use of caffeine was not restricted, but patients were instructed not to change the usage. Pregnant or lactating females were not included in the study. Patients were cautioned not to use over-the-counter medications without approval of the PI during the study, especially medications for sleep or allergies including but not limited to the use of oral steroids or antihistamines with potential to confound the results of the trial.
They were spouses of patients who participated in this trial. […]

[2] = PK/PD: L-histidine levels in plasma and CSF after final dose
Method: as §1, §2
On day 7 from the baseline, the end-of-study visit, subjects arrived at the center without taking the last dose, which was administered under supervision and timed for time-zero. Baseline samples of blood for serum and plasma were collected and blood samples were obtained every half-hour for 6 hours.
At 90 minutes post administration a lumbar puncture was performed, and 0.5 ml aliquots of spinal fluid were collected for a total of 5 minutes. Spinal fluid, serum, and plasma were frozen at -80C until analysis for levels of histidine, histamine and metabolomic studies.
L-Histidine and L-Histidine-^13G6 analytical standards (Sigma Aldrich) were prepared in LC-MS grade water with 0.1% formic acid (FA). 25 μL of sample (CSF or blood) or calibration standard was mixed with 75 μL of LC-MS grade water with 0.1% FA and 200 μL of 2.5 μM L-Histidine-^13G6. […]

CSF biochemicals = assay: Metabolomics in the cerebrospinal fluid after histidine loading
From the text: Four CSF samples from normal subjects (2 before histidine loading and 2 after) and 12 CSF samples from MS patients (6 before and 6 after histidine loading) were examined in this study. The MS samples were evenly distributed from 3 responders and 3 non-responder MS subjects. The dataset comprised a total of 494 biochemicals, 434 known and 60 unknown entities. […] A summary of the biochemicals that achieved significance (p≤0.05) as also those approaching significance (0.05<p<0.10), were examined. All assays also examined estimates of false discoveries (q-value) inherent in estimates that use multiple comparisons. A low q-value (<0.1) gave confidence in a result with a low p value as a potentially meaningful result.

[3] = Group 1: 150 mg po bid of L-histidine and carbidopa 50 mg po bid, one individual
[4] = Group 2: 500 mg po bid of L-histidine and carbidopa 50 mg po bid, single subject
[5] = Group 2 responder, 500 mg po bid of L-histidine and carbidopa 50 mg po bid
[6] = short exposure to the study drug
[7] = following histidine loading, lower prior to loading
[8] = responder population after histidine loading, FIG. 8

Compound: N[C@@H](Cc1c[nH]cn1)C(=O)O [L-histidine]
- adverse events ([1]; Group 1: 150 mg po bid of L-histidine and carbidopa 50 mg po bid): No adverse events were reported
- response in fatigue scales (VAFS, FSS, MFIS) [1, 3]: improved fatigue scores in all three fatigue scales
- improvement in the MFIS [1, 3]: 30%
- response in fatigue scales (VAFS, FSS, MFIS) [1, 4]: improvement in all 3 fatigue scales
- improvement in the MFIS [1, 4]: 81%
- cognition (written narrative) [1, 5]: able to think clearly, have better focus, and improved cognition
- libido and sexual activity (written narrative) [1, 5]: Remarkable improvement of libido and sexual activity
- overall quality of life (written narrative) [1, 5]: marked improvement in overall quality of life
- relief from fatigue (written narratives) ([1]; Group 3: L-histidine 1 gm po bid and carbidopa 50 mg po bid): The relief from fatigue was complete
- response in fatigue scales (VAFS, FSS, MFIS) ([1]; Group 3: L-histidine 1 gm po bid and carbidopa 50 mg po bid, MS subjects): three of the three MS subjects noticed remarkable improvement
- improvements of MFIS better than off-drug scores ([1]; Group 3: L-histidine 1 gm po bid and carbidopa 50 mg po bid, three MS subjects, one value each): 69% and 74% and 82%
- day on which subjects noticed the change ([1]; all subjects who noted improvement, at whatever dose, response sustained until study drug discontinued): ~2 days
- adverse events ([1]; normal subjects): Nor did they experience any adverse events
- benefit from the study drug ([1]; normal subjects (no MS, no fatigue)): did not notice any benefit
- subset scores of MSFC (post-hoc examination) ([1]; responders, physical, cognitive and psychosocial domains): improvement of all three domains, physical, cognitive and psychosocial
- change in satiety scale [1, 6]: A change in satiety scale was not recorded
- change in weight [1, 6]: A change in weight was also not recorded
- Epworth Sleep Scale (ESS) on study drug ([1]; single fatigue responder with ESS over 10, dropped from 13): 6
- reported adverse events ([1]; whole study, all groups): few and related to the lumbar punctures or unrelated intercurrent infections
- time after which plasma L-histidine levels became undetectable ([2]; human, in vivo): > 4 h
- time of peak levels of L-histidine in the plasma ([2]; plasma, after final dose, FIG. 5A, 500 mg carbidopa arm): 2 h
- Histamine levels in the CSF (CSF biochemicals; FIG. 7): below the level of detection sensitivity
- Histidine levels in CSF after loading (CSF biochemicals; MS patients and normal subjects, FIG. 7): increased after loading similarly in MS patients and normal subjects
- Deoxycarnitine in CSF (CSF biochemicals; after histidine loading): increased
- NAA levels in CSF (CSF biochemicals; after histidine loading): increased
- Carnosine and homocarnosine levels in CSF (CSF biochemicals; after histidine loading, FIG. 7): did not change significantly
- levels of carnosine and homocarnosine (CSF biochemicals; after the intervention (concluding statement)): increases the levels
- Acetoacetate in CSF (CSF biochemicals; [7]): increased following histidine loading
- beta hydroxybutyrate in CSF (CSF biochemicals; [7]): increased following histidine loading
- cis-aconitate in CSF (CSF biochemicals; post dosing, MS subjects): increases were observed
- citrate in CSF (CSF biochemicals; post dosing, MS subjects): increases were observed
- Creatine phosphate in CSF (CSF biochemicals; [8]): increased
- N-acetylaspartate (NAA) in CSF (CSF biochemicals; [8]): increased
